Changes are numbered by the printed parent chain. Read-outs that look alike come from different tables or passages of the source.
What was measured:
RET(KD: 658-1114 G810R) = target: T1, RET(KD: 658-1114 G810R) (Homo sapiens, UniProt P07949, G810R); assay: HiBiT-Degradation, RET G810R degradation assay (Nano-Glo HiBiT Lytic), 293T.165 cells; assay type: cell-based; conditions: for Emax / DC50: 6.0 hours; for Emax: % remaining protein, read-out: 293T.165 RET(KD: 658-1114 G810R) 6.0 hours (Emax); for DC50: read-out: 293T.165 RET(KD: 658-1114 G810R) 6.0 hours (DC50)
T1 construct: 658-1114; expressed in transfected cells; host or cells: 293T.165 (293T cells, generated in-house)
T1 sequence (P07949 658-1114 G810R): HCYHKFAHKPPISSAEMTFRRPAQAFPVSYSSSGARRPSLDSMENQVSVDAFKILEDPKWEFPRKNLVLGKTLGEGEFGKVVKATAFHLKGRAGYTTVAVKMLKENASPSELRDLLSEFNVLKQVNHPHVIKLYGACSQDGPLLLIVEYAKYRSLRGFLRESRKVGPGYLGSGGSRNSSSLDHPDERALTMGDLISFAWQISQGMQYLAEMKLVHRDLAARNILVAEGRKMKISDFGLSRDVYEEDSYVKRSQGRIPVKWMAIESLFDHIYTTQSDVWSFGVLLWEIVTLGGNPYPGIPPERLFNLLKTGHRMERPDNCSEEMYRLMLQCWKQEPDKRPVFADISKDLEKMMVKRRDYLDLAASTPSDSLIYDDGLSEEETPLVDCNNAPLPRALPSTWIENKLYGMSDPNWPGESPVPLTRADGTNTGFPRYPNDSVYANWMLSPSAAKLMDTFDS
How it was run: (§1)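 Engineered 293T cells carry a HiBiT tag on the RET kinase domain, either wild type (line 293T.144) or G810R (line 293T.165). Compounds act for 6 h across a 10 μM-top, half-log 11-point range. Lytic HiBiT luminescence gives remaining protein, fitted for DC50 and Emax.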

RET (658-1114) = target: T2, RET (658-1114) (Homo sapiens, UniProt P07949); assay: HiBiT-Degradation, RET wild-type degradation assay (Nano-Glo HiBiT Lytic), 293T.144 cells; assay type: cell-based; conditions: for DC50 / Emax: 6.0 hours; for DC50: read-out: 293T.144 RET (658-1114) 6.0 hours (DC50); for Emax: read-out: 293T.144 RET (658-1114) 6.0 hours (Emax)
T2 construct: 658-1114; expressed in transfected cells; host or cells: 293T.144 (293T cells, generated in-house)
T2 sequence (P07949 658-1114): T1 sequence (P07949 658-1114 G810R) with R153G
How it was run: as §1

[1] = half-maximal degradation concentration

Row | SMILES | Emax (RET(KD: 658-1114 G810R)) | DC50 (RET(KD: 658-1114 G810R); [1]) | 293T.165 RET(KD: 658-1114 G810R) 6.0 hours (Emax) (RET(KD: 658-1114 G810R); HiBiT-Degradation) | 293T.165 RET(KD: 658-1114 G810R) 6.0 hours (IP) [nM] (RET(KD: 658-1114 G810R); HiBiT-Degradation) | DC50 (RET(KD: 658-1114 G810R); HiBiT-Degradation) | 293T.144 RET (658-1114) 6.0 hours (IP) [nM] (RET (658-1114); HiBiT-Degradation) | DC50 (RET (658-1114); HiBiT-Degradation) | Emax (RET (658-1114); HiBiT-Degradation) | 293T.165 RET(KD: 658-1114 G810R) 6.0 hours (IP) [nM] (RET(KD: 658-1114 G810R)) | 293T.144 RET (658-1114) 6.0 hours (IP) [nM] (RET (658-1114)) | Emax (RET (658-1114); % remaining protein) | DC50 (RET (658-1114); [1])
1 | Cn1nc(N2CCC(=O)NC2=O)c2ccc(C3CCN(CC(=O)N4CCC(n5cc(-c6cc(-c7ccc(N8CCN(Cc9ccccn9)CC8)nc7)c7c(C#N)cnn7c6)cn5)CC4)CC3)cc21 [Compound 13, 6-(1-(1-(2-(4-(3-(2,4-dioxotetrahydropyrimidin-1(2H)-yl)-1-methyl-1H-indazol-6-yl)piperidin-1-yl)acetyl)piperidin-4-yl)-1H-pyrazol-4-yl)-4-(6-(4-(pyridin-2-ylmethyl)piperazin-1-yl)pyridin-3-yl)pyrazolo[1,5-a]pyridine-3-carbonitrile] | < 50% | < 100 nM | +++ (<50% = +++) | ++++ (< 50 nM = ++++) | < 100 nM | ++++ (< 50 nM = ++++) | < 50 nM | < 30% |  |  |  | 
2 | CCC1(C(=O)NC2CCC2)CCN(c2ccc(-c3nc(-c4cnn([C@H]5CC[C@H](N6CCC(c7ccc8c(c7)CCN8[C@@H]7CCC(=O)NC7=O)CC6)CC5)c4)cn4ncc(C#N)c34)cn2)CC1 (single isomer, unassigned) [Compound 129] | < 30% | < 50 nM |  |  |  |  |  |  | ++++ (<50 nM = ++++) | ++++ (<50 nM = ++++) | < 30% | < 50 nM
3 | COc1cc(N2CCN([C@H]3CC[C@H](n4cc(-c5cn6ncc(C#N)c6c(-c6ccc(N7C[C@H]8COC[C@@H](C7)N8Cc7ccc(F)cc7)nc6)n5)cn4)CC3)CC2)c(F)cc1NC1CCC(=O)NC1=O (relative stereo) [Compound 164, 6-[1-[4-[4-[4-[(2,6-dioxo-3-piperidyl)amino]-2-fluoro-5-methoxy-phenyl]piperazin-1-yl]cyclohexyl]pyrazol-4-yl]-4-[6-[(1R,5S)-9-[(4-fluorophenyl)methyl]-3-oxa-7,9-diazabicyclo[3.3.1]nonan-7-yl]-3-pyridyl]pyrazolo[1,5-a]pyrazine-3-carbonitrile] | < 30% | < 100 nM |  |  |  |  |  |  | +++ (<100 nM = +++) | ++++ (<50 nM = ++++) | < 30% | < 50 nM
4 | CCC1(C(=O)NC2CCC2)CCN(c2ccc(-c3nc(-c4cnn([C@H]5CC[C@H](CN6CCN(c7ccc(N[C@@H]8CCC(=O)NC8=O)cc7F)CC6)CC5)c4)cn4ncc(C#N)c34)cn2)CC1 [Compound 190, 1-[5-[3-cyano-6-[1-[4-[[4-[4-[[(3R)-2,6-dioxo-3-piperidyl]amino]-2-fluoro-phenyl]piperazin-1-yl]methyl]cyclohexyl]pyrazol-4-yl]pyrazolo[1,5-a]pyrazin-4-yl]-2-pyridyl]-N-cyclobutyl-4-ethyl-piperidine-4-carboxamide] | < 30% | < 100 nM |  |  |  |  |  |  | ++++ (<50 nM = ++++) | ++++ (<50 nM = ++++) | < 30% | < 50 nM
5 | N#Cc1cnn2cc(-c3ccc(N4CCN(C(=O)CN5CCC(c6ccc(NC7CCC(=O)NC7=O)cc6)CC5)CC4)cc3)cc(-c3ccc(N4C[C@H]5CC[C@@H](C4)O5)nc3)c12 (stereo partly drawn) [Compound 19, 4-(6-((1R,5S)-8—Oxa-3-azabicyclo[3.2.1]octan-3-yl)pyridin-3-yl)-6-(4-(4-(2-(4-(4-((2,6-dioxopiperidin-3-yl)amino)phenyl)piperidin-1-yl)acetyl)piperazin-1-yl)phenyl)pyrazolo[1,5-a]pyridine-3-carbonitrile] | < 50% | < 100 nM | +++ (<50% = +++) | ++++ (< 50 nM = ++++) | < 100 nM | ++++ (< 50 nM = ++++) | < 50 nM | < 30% |  |  |  | 

Reference: patent US12661410B2, “Compounds for targeted degradation of RET” (C4 Therapeutics, Inc., priority 2020, dated 2026)
